The compounds below were run on HCT116 (assay: In vitro cytotoxicity measured by the cell colony formation assay). Conditions: HCT116 cells, 72 h drug incubation, colonies counted after 7 days; ID50 = drug concentration producing 50% inhibition of colony formation; read-out: IN VITRO ID 50 (nm) HCT116.
Format: cell-based

| SMILES | IC50 [nM] |
| --- | --- |
| CC(=O)OC12COC1CC(O)C1(C)C(=O)C(OC(=O)c3ccco3)C3=C(C)C(OC(=O)C(O)C(NC(=O)OC(C)(C)C)C4CCC4)CC(O)(C(OC(=O)c4ccccc4)C21)C3(C)C (stereo not drawn) [Compound 2199] | < 10 |
| CCC(=O)O[C@H]1C(=O)[C@@]2(C)C([C@H](OC(=O)c3ccccc3)[C@]3(O)C[C@H](OC(=O)[C@H](O)[C@@H](NC(=O)c4ccco4)c4cccs4)C(C)=C1C3(C)C)[C@]1(OC(C)=O)CO[C@@H]1C[C@@H]2O (stereo partly drawn) [Compound 3053] | < 1 |
| C/C=C/C(=O)O[C@H]1C(=O)[C@@]2(C)C([C@H](OC(=O)c3ccccc3)[C@]3(O)C[C@H](OC(=O)[C@H](O)[C@H](C=C(C)C)NC(=O)OC(C)(C)C)C(C)=C1C3(C)C)[C@]1(OC(C)=O)CO[C@@H]1C[C@@H]2O (stereo partly drawn) [Compound 2332] | < 1 |
| C/C=C/C(=O)N[C@@H](c1ccoc1)[C@@H](O)C(=O)O[C@H]1C[C@@]2(O)[C@@H](OC(=O)c3ccccc3)C3[C@](C)(C(=O)[C@H](OC(=O)C4CC4)C(=C1C)C2(C)C)[C@@H](O)C[C@H]1OC[C@@]31OC(C)=O (stereo partly drawn) [Compound 4944] | < 1 |
| CCC(=O)O[C@H]1C(=O)[C@@]2(C)C([C@H](OC(=O)c3ccccc3)[C@]3(O)C[C@H](OC(=O)[C@H](O)[C@@H](NC(=O)c4cccs4)c4cccs4)C(C)=C1C3(C)C)[C@]1(OC(C)=O)CO[C@@H]1C[C@@H]2O (stereo partly drawn) [Compound 3425] | < 1 |
| CC(=O)O[C@@]12CO[C@@H]1C[C@H](O)[C@@]1(C)C(=O)[C@H](OC(=O)C(C)C)C3=C(C)[C@@H](OC(=O)[C@H](O)[C@@H](NC(=O)OC(C)(C)C)c4ccoc4)C[C@@](O)([C@@H](OC(=O)c4ccccc4)C12)C3(C)C (stereo partly drawn) [Compound 2273] | < 1 |
| CC(=O)OC12COC1CC(O)C1(C)C(=O)C(OC(=O)c3ccco3)C3=C(C)C(OC(=O)C(O)C(NC(=O)OC(C)(C)C)C(C)C)CC(O)(C(OC(=O)c4ccccc4)C21)C3(C)C (stereo not drawn) [Compound 2181] | < 10 |
| CC(=O)O[C@@]12CO[C@@H]1C[C@H](O)[C@@]1(C)C(=O)[C@H](OC(=O)C3CC3)C3=C(C)[C@@H](OC(=O)[C@H](O)[C@@H](NC(=O)OC(C)C)c4cccs4)C[C@@](O)([C@@H](OC(=O)c4ccccc4)C12)C3(C)C (stereo partly drawn) [Compound 3071] | < 1 |
| CC(=O)O[C@@]12CO[C@@H]1C[C@H](O)[C@@]1(C)C(=O)[C@H](OC(=O)C(C)C)C3=C(C)[C@@H](OC(=O)[C@H](O)[C@@H](NC(=O)OC(C)(C)C)C(C)C)C[C@@](O)([C@@H](OC(=O)c4ccccc4)C12)C3(C)C (stereo partly drawn) [Compound 2306] | < 10 |
| CC(=O)OC12COC1CC(O)C1(C)C(=O)C(OC(=O)C(C)C)C3=C(C)C(OC(=O)C(O)C(NC(=O)OC(C)(C)C)c4ccccn4)CC(O)(C(OC(=O)c4ccccc4)C21)C3(C)C (stereo not drawn) [Compound 2238] | < 1 |
| CCCC(=O)O[C@H]1C(=O)[C@@]2(C)C([C@H](OC(=O)c3ccccc3)[C@]3(O)C[C@H](OC(=O)[C@H](O)[C@@H](NC(=O)OC(C)(C)C)c4ccncc4)C(C)=C1C3(C)C)[C@]1(OC(C)=O)CO[C@@H]1C[C@@H]2O (stereo partly drawn) [Compound 0978] | < 1 |
| CC(=O)OC12COC1CC(O)C1(C)C(=O)C(OC(=O)c3ccco3)C3=C(C)C(OC(=O)C(O)C(NC(=O)OC(C)(C)C)c4ccc([N+](=O)[O-])cc4)CC(O)(C(OC(=O)c4ccccc4)C21)C3(C)C (stereo not drawn) [Compound 2202] | < 1 |
| CCCC(=O)O[C@H]1C(=O)[C@@]2(C)C([C@H](OC(=O)c3ccccc3)[C@]3(O)C[C@H](OC(=O)[C@H](O)[C@H](C=C(C)C)NC(=O)OCC(C)C)C(C)=C1C3(C)C)[C@]1(OC(C)=O)CO[C@@H]1C[C@@H]2O (stereo partly drawn) [Compound 5144] | < 10 |
| CC(=O)O[C@@]12CO[C@@H]1C[C@H](O)[C@@]1(C)C(=O)[C@H](OC(=O)C(C)C)C3=C(C)[C@@H](OC(=O)[C@H](O)[C@@H](NC(=O)OC(C)(C)C)c4cccs4)C[C@@](O)([C@@H](OC(=O)c4ccccc4)C12)C3(C)C (stereo partly drawn) [Compound 2287] | < 1 |
| CCCC(=O)N[C@@H](c1cccs1)[C@@H](O)C(=O)O[C@H]1C[C@@]2(O)[C@@H](OC(=O)c3ccccc3)C3[C@](C)(C(=O)[C@H](OC(=O)CCC)C(=C1C)C2(C)C)[C@@H](O)C[C@H]1OC[C@@]31OC(C)=O (stereo partly drawn) [Compound 3148] | < 1 |
| C/C=C/C(=O)O[C@H]1C(=O)[C@@]2(C)C([C@H](OC(=O)c3ccccc3)[C@]3(O)C[C@H](OC(=O)[C@H](O)[C@@H](NC(=O)OC(C)(C)C)c4ccco4)C(C)=C1C3(C)C)[C@]1(OC(C)=O)CO[C@@H]1C[C@@H]2O (stereo partly drawn) [Compound 2379] | < 1 |
| CCC(=O)O[C@H]1C(=O)[C@@]2(C)C([C@H](OC(=O)c3ccccc3)[C@]3(O)C[C@H](OC(=O)[C@H](O)[C@@H](NC(=O)c4cccs4)c4ccco4)C(C)=C1C3(C)C)[C@]1(OC(C)=O)CO[C@@H]1C[C@@H]2O (stereo partly drawn) [Compound 3644] | < 1 |
| CC(=O)O[C@@]12CO[C@@H]1C[C@H](O)[C@@]1(C)C(=O)[C@H](OC(=O)C(C)C)C3=C(C)[C@@H](OC(=O)[C@H](O)[C@@H](NC(=O)OC(C)(C)C)c4cccnc4)C[C@@](O)([C@@H](OC(=O)c4ccccc4)C12)C3(C)C (stereo partly drawn) [Compound 2242] | < 10 |

| SMILES | IC50 [nM] |
| --- | --- |
| CC(=O)OC12COC1CC(O)C1(C)C(=O)C(OC(=O)c3ccco3)C3=C(C)C(OC(=O)C(O)C(NC(=O)OC(C)(C)C)c4ccoc4)CC(O)(C(OC(=O)c4ccccc4)C21)C3(C)C (stereo not drawn) [Compound 2159] | < 1 |
| CCC(=O)O[C@H]1C(=O)[C@@]2(C)C([C@H](OC(=O)c3ccccc3)[C@]3(O)C[C@H](OC(=O)[C@H](O)[C@@H](NC(=O)c4ccccc4)c4ccccn4)C(C)=C1C3(C)C)[C@]1(OC(C)=O)CO[C@@H]1C[C@@H]2O (stereo partly drawn) [Compound 0634] | < 10 |
| CC(=O)OC12COC1CC(O)C1(C)C(=O)C(OC(=O)c3ccco3)C3=C(C)C(OC(=O)C(O)C(C=C(C)C)NC(=O)OC(C)(C)C)CC(O)(C(OC(=O)c4ccccc4)C21)C3(C)C (stereo not drawn) [Compound 2101] | < 1 |
| CC(=O)O[C@@]12CO[C@@H]1C[C@H](O)[C@@]1(C)C(=O)[C@H](OC(=O)C3CC3)C3=C(C)[C@@H](OC(=O)[C@H](O)[C@@H](NC(=O)c4ccccc4)c4ccco4)C[C@@](O)([C@@H](OC(=O)c4ccccc4)C12)C3(C)C (stereo partly drawn) [Compound 0908] | < 1 |
| C/C=C/C(=O)N[C@@H](c1ccco1)[C@@H](O)C(=O)O[C@H]1C[C@@]2(O)[C@@H](OC(=O)c3ccccc3)C3[C@](C)(C(=O)[C@H](OC(=O)CC)C(=C1C)C2(C)C)[C@@H](O)C[C@H]1OC[C@@]31OC(C)=O (stereo partly drawn) [Compound 3982] | < 1 |
| CC(=O)O[C@@]12CO[C@@H]1C[C@H](O)[C@@]1(C)C(=O)[C@H](OC(=O)C3CC3)C3=C(C)[C@@H](OC(=O)[C@H](O)[C@@H](NC(=O)OC(C)(C)C)c4ccc([N+](=O)[O-])cc4)C[C@@](O)([C@@H](OC(=O)c4ccccc4)C12)C3(C)C (stereo partly drawn) [Compound 0879] | < 1 |
| CCCC(=O)N[C@@H](c1ccco1)[C@@H](O)C(=O)O[C@H]1C[C@@]2(O)[C@@H](OC(=O)c3ccccc3)C3[C@](C)(C(=O)[C@H](OC(=O)CCC)C(=C1C)C2(C)C)[C@@H](O)C[C@H]1OC[C@@]31OC(C)=O (stereo partly drawn) [Compound 3222] | < 1 |
| CCC(=O)O[C@H]1C(=O)[C@@]2(C)C([C@H](OC(=O)c3ccccc3)[C@]3(O)C[C@H](OC(=O)[C@H](O)[C@@H](NC(=O)c4ccco4)c4ccco4)C(C)=C1C3(C)C)[C@]1(OC(C)=O)CO[C@@H]1C[C@@H]2O (stereo partly drawn) [Compound 3818] | < 1 |
| CC(=O)O[C@@]12CO[C@@H]1C[C@H](O)[C@@]1(C)C(=O)[C@H](OC(=O)C3CC3)C3=C(C)[C@@H](OC(=O)[C@H](O)[C@@H](NC(=O)OC(C)(C)C)c4ccccn4)C[C@@](O)([C@@H](OC(=O)c4ccccc4)C12)C3(C)C (stereo partly drawn) [Compound 2802] | < 1 |
| CCC(=O)O[C@H]1C(=O)[C@@]2(C)C([C@H](OC(=O)c3ccccc3)[C@]3(O)C[C@H](OC(=O)[C@H](O)[C@@H](NC(=O)C=C(C)C)c4cccs4)C(C)=C1C3(C)C)[C@]1(OC(C)=O)CO[C@@H]1C[C@@H]2O (stereo partly drawn) [Compound 4335] | < 1 |
| C/C=C/C(=O)N[C@@H](c1ccoc1)[C@@H](O)C(=O)O[C@H]1C[C@@]2(O)[C@@H](OC(=O)c3ccccc3)C3[C@](C)(C(=O)[C@H](OC(=O)CC)C(=C1C)C2(C)C)[C@@H](O)C[C@H]1OC[C@@]31OC(C)=O (stereo partly drawn) [Compound 4888] | < 1 |
| CCCC(=O)O[C@H]1C(=O)[C@@]2(C)C([C@H](OC(=O)c3ccccc3)[C@]3(O)C[C@H](OC(=O)[C@H](O)[C@@H](NC(=O)OC(C)(C)C)c4ccco4)C(C)=C1C3(C)C)[C@]1(OC(C)=O)CO[C@@H]1C[C@@H]2O (stereo partly drawn) [Compound 0983] | < 1 |
| CCCC(=O)O[C@H]1C(=O)[C@@]2(C)C([C@H](OC(=O)c3ccccc3)[C@]3(O)C[C@H](OC(=O)[C@H](O)[C@@H](NC(=O)OC(C)(C)C)c4cccs4)C(C)=C1C3(C)C)[C@]1(OC(C)=O)CO[C@@H]1C[C@@H]2O (stereo partly drawn) [Compound 1003] | < 1 |
| CCCC(=O)O[C@H]1C(=O)[C@@]2(C)C([C@H](OC(=O)c3ccccc3)[C@]3(O)C[C@H](OC(=O)[C@H](O)[C@@H](NC(=O)c4ccco4)c4cccs4)C(C)=C1C3(C)C)[C@]1(OC(C)=O)CO[C@@H]1C[C@@H]2O (stereo partly drawn) [Compound 3352] | < 1 |
| CCC(=O)O[C@H]1C(=O)[C@@]2(C)C([C@H](OC(=O)c3ccccc3)[C@]3(O)C[C@H](OC(=O)[C@H](O)[C@@H](NC(=O)OC(C)(C)C)c4ccoc4)C(C)=C1C3(C)C)[C@]1(OC(C)=O)CO[C@@H]1C[C@@H]2O (stereo partly drawn) [Compound 0549] | < 10 |
| CCCC(=O)O[C@H]1C(=O)[C@@]2(C)C([C@H](OC(=O)c3ccccc3)[C@]3(O)C[C@H](OC(=O)[C@H](O)[C@@H](NC(=O)OC(C)(C)C)c4cccnc4)C(C)=C1C3(C)C)[C@]1(OC(C)=O)CO[C@@H]1C[C@@H]2O (stereo partly drawn) [Compound 0966] | < 10 |
| CCC(=O)O[C@H]1C(=O)[C@@]2(C)C([C@H](OC(=O)c3ccccc3)[C@]3(O)C[C@H](OC(=O)[C@H](O)[C@@H](NC(=O)OC(C)(C)C)c4ccncc4)C(C)=C1C3(C)C)[C@]1(OC(C)=O)CO[C@@H]1C[C@@H]2O (stereo partly drawn) [Compound 0521] | < 1 |
| CC(=O)O[C@@]12CO[C@@H]1C[C@H](O)[C@@]1(C)C(=O)[C@H](OC(=O)C3CC3)C3=C(C)[C@@H](OC(=O)[C@H](O)[C@@H](NC(=O)c4ccccc4)c4cccs4)C[C@@](O)([C@@H](OC(=O)c4ccccc4)C12)C3(C)C (stereo partly drawn) [Compound 0919] | < 1 |

Reference: US7524869B2, “Taxanes having a C10 ester substituent” (Florida State University Research Foundation, Inc., priority 2000, dated 2009)
